# Reference: patent publication US20230266302A1, “SYNTHESIS AND USE OF N-BENZYL SULFONAMIDES” (THE UNIVERSITY OF TULSA, priority 2020, published 2023)
# Assays:
# Type in all cases: cell-based
# PC3 (prostate cancer) = experiment: ATP level assay (CellTiter-Glo), percent of control; conditions: two hour incubation; for activity at 100 µM: 2 h, compound alone, control DMSO, read-out: POC (percent of control) PC3
# SkBr3 (breast cancer) = experiment: as above; conditions: two hour incubation; for activity at 100 µM: Homo sapiens, SK-BR-3, 2 h, compound alone, control DMSO, read-out: POC (percent of control) SkBr3
# H293 (kidney cancer) = experiment: Cytotoxicity testing, CellTiter-Blue assay (FIG. 9); conditions: 100 μM, 24 hour compound incubation, result in words
# Method: The cytotoxicity tests were carried out in the following manner. Living cells are known to convert resazurin to the fluorescent compound resorufin. Test systems which rely upon this reaction are commercially available. One such test is known at the Cell Titer Blue Cell Viability test assay from Promega. Cell cultures for each of the identified cancer lines were obtained from ATCC and maintained in Dulbecco's Modified Eagle Medium (DMEM) supplemented with 10% fetal bovine serum (FBS) and pen/strep. As known to those skilled in the art, DMEM typically includes the components identified below.
# The test method provides for incubating the cell cultures at 37° C. Additionally, the cell cultures are kept under an atmosphere containing 5% CO2. After allowing for proliferation of the cells, the cells were distributed across a plurality of test cells containing from 100 μL DMEM plus 10% FBS and allowed to attach to the surface of the cells. Typically, the time for attachment will require about 12 hours to about 18 hours. Following attachment, the cells were treated with either a solvent control or the N-benzyl sulfonamide compound of interest dissolved in a suitable solvent such as but not limited to DMSO. Typically, about 18 hours to about 36 hours are required to determine the effect of the N-benzyl sulfonamide compound of interest on cell viability. Following treatment of the cells with the N-benzyl sulfonamide or control, the toxicity of the compound to the cells will be determined by addition of 10 μl of CellTiter-Blue reagent, i.e. resazurin. Typically, the resazurin is added between about 18 hours to about 36 hours after treating the cells with the N-benzyl sulfonamides or the control. The cells are allowed to consume and convert the resazurin to resorufin for about one to four hours. Subsequently, the fluorescence of […] is measured by excitation at 560 nm and recording the emission at 590 nm within an instrument configured to measure fluorescence intensity. Two commercially available systems are the BioTek Cytation 5 plate reader and the Promega Glomax Multi+detection system. […] The method for determining IC50 values is well known in the art and will not be discussed further. As known to those skilled in the art, IC50 is a quantitative measure that indicates how much of a particular inhibitory substance (e.g. drug) is needed to inhibit, in vitro, a given biological process or biological component by 50%. Therefore, each N-benzyl sulfonamide will be tested over a range of concentrations. Typically, the concentration ranges will be: 6.25 μM, 12.5 μM, 25 μM, 50 μM, and 100 μM. The control in this method is normally dimethyl […] (DMSO) or other solvent suitable for dissolving the compounds to be tested. FIG. 8 depicts the % cell viability for the indicated compounds depicted in FIG. 7.
# The Table of FIG. 9 provides the results of cytotoxicity testing a 100 μM concentration of compounds 2, 5-9, 11-12, 14, 16, 18-22 of FIG. 7 against the indicated cancer cell lines using CellTiter-Blue assay with 24 hour compound incubation time. FIG. 9 reflects the percent reduction in cell viability resulting from the treatment of the indicated cancer cell lines with the indicated compounds. As indicated by the boxed values in FIG. 9, compounds 2, 5, and 6 would be considered effective against H293. […] The Table of FIG. 10 provides a comparison of the IC50 values of select compounds from FIG. 7 to the IC50 values of two known anti-cancer sulfonamides, ABT-751 and Indisulam. As indicated by FIG. 10, the identified compounds performed remarkably better than the known anti-cancer agents. Thus, the identified compounds are expected to have greater anti-cancer potency.
# [1] = compound 100 uM + 2DG (about 10-20 mM)
# [2] = compound 100 uM + rotenone (approximately 1.25 μM)
SMILES,activity at 100 µM (PC3 (prostate cancer)),POC (percent of control) PC3 (PC3 (prostate cancer); [1]),POC (percent of control) PC3 (PC3 (prostate cancer); [2]),activity at 100 µM (SkBr3 (breast cancer)),POC (percent of control) SkBr3 (SkBr3 (breast cancer); [1]),POC (percent of control) SkBr3 (SkBr3 (breast cancer); [2]),"percent reduction in cell viability, H293 (H293 (kidney cancer))"
"Cc1ccc(S(=O)(=O)NCc2c[nH]c3cccc(Br)c23)cc1 [Compound 5, N-[(4-bromo-1H-indol-3-yl)methyl]-4-methylbenzenesulfonamide]",68.3%,4.8% of control,18.3% of control,71.1%,37.1% of control,60% of control,effective
"Cc1cccc2c(CNS(=O)(=O)c3ccccc3)c[nH]c12 [Compound 6, N-[(7-methyl-1H-indol-3-yl)methyl]benzenesulfonamide]",38.3%,35.9% of control,54.3% of control,97%,55.9% of control,79.4% of control,effective
"O=S(=O)(NCc1c[nH]c2ccccc12)c1ccc(Cl)cc1 [Compound 2, N-[(1H-indol-3-yl)methyl]-4-chlorobenzenesulfonamide]",30.9%,16.7% of control,36.6% of control,72.6%,38% of control,72.6% of control,effective
